Reference: PMC8305768, “Design, Synthesis and Antiparasitic Evaluation of Click Phospholipids” (Molecules, 2021)
Structures can show the parent of a compound that is named as a salt.

Key:
[1] = tested on: T. cruzi Y strain intracellular amastigotes; test: Activity against T. cruzi Y strain intracellular amastigotes (HG39 cell-line, parasite load); format: cell-based; details: Trypanosoma cruzi, read-out: Parassite Load Reduction (%)
Protocol: T. cruzi epimastigotes (Y strain) were obtained by axenic cultivation in the LIT medium, supplemented with 10% FBS (Cultilab, São Paulo, Brazil). Cultures were maintained at […] for 4–5 days until they reached the log growth phase. New cultures were made every 4 days from the initial inoculum of 2 × 10^6 parasites/mL. T. cruzi trypomastigotes (Y strain) were maintained in culture by the infection of LLC-MK2 (ATTC-CCL7) epithelial cells. This cell line was cultured in […] tissue culture bottles (TPP) in RPMI 1640 medium (Gibco), (Thermo Fischer Scientific, Carlsbad, CA, USA) supplemented with 10% FBS (Gibco) (Thermo Fischer Scientific, Carlsbad, CA, USA). Cultures were maintained at 37 °C under 5% CO2 atmosphere, and RPMI 1640 medium and SFB were exchanged every 48 h. After confluence, the cultures were treated with 1 mL of a mixture of trypsin and versene (Sigma, São Paulo, Brazil) (0.2 and 0.002%, respectively). After 24 h, a subconfluence culture was infected with the trypomastigotes in the approximate proportion of 10:1 parasites/cell. From five to seven days post infection, the trypomastigote stage was obtained from the culture supernatant. Alternatively (Figure 2), T. cruzi strain Y was maintained as previously described.

[2] = tested on: A549 cells; test: Cytotoxicity assay A549 (CellTiter-Glo); format: cell-based, human; details: compounds 10 μM; miltefosine 10 μM or 1 μM
Description: Early ADMET profiling: The early ADMET profiling of the new derivatives involved a group of assays widely used in drug development as part of the preclinical in vitro toxicity studies. In particular our panel included hERG inhibition, five cytochromes P450 (CYP1A2, CYP2C9, CYP2C19, CYP2D6 and CYP3A4), two cell-lines (A549, epithelial human lung adenocarcinoma, WI38 and foetal lung fibroblasts), Aurora B kinase and mitochondrial toxicity, in addition to the parasite relevant toxicity against THP1 macrophages. The compounds were tested at 10 μΜ, whilst the miltefosine control was tested at 10 μΜ or 1 μM. The toxicity of the new click phospholipids is depicted in Figure 3 in a traffic light format (from red through yellow to green for decreasing ADMET liabilities).
Cytotoxicity assay: A549 cells and WI-38 cells were grown on surface-modified T175 cell culture flasks in Dulbecco’s modified Eagle medium with 10% foetal calf serum (FCS), streptomycin (100 μg/mL) and 100 U/mL penicillin G. At about 80% confluency, cells were washed, trypsinized, resuspended and counted in RPMI-1640 medium before seeding (in triplicate) into white 384-well microtiter plates (20 μL) at 500 cells/well and incubated at 37 °C in the presence of 5% CO2 for 24 h. A total of 20 μL/well of CellTiter-Glo (CTG) reagent (Promega Corp., Madison, WI, USA) was added to each well, and plates were read using an EnVision Multilabel 2103 Reader after a 10-min incubation in the dark. Dose–response assays for compounds made use of 11-point curves. Each test compound (200 nL of 10 mM top concentration in 100% v/v DMSO) was added to cells seeded in polystyrene 384-well cell culture microtiter plates using the Echo 550 Liquid Handler and read after 24 h of incubation at 37 °C in the presence of 5% CO2 using CTG as described above. The compounds/positive control (paclitaxel with final concentration of 10 μM and 1% v/v DMSO) and no compound (final 1% v/v DMSO) were added into the 384-well plates (200 nL/well; 1% v/v DMSO) using the Echo 550 Liquid Handler. The raw luminescence signal of each sample was converted into the percentage of cell growth.

[3] = molecular target: T1, hERG (Homo sapiens, UniProt Q12809); test: hERG cardiotoxicity assay (Predictor hERG fluorescence polarization); format: binding; details: compounds 10 μM; miltefosine 10 μM or 1 μM
T1 construct: purchased Thermo Fischer Scientific
T1 sequence (Q12809 whole entry): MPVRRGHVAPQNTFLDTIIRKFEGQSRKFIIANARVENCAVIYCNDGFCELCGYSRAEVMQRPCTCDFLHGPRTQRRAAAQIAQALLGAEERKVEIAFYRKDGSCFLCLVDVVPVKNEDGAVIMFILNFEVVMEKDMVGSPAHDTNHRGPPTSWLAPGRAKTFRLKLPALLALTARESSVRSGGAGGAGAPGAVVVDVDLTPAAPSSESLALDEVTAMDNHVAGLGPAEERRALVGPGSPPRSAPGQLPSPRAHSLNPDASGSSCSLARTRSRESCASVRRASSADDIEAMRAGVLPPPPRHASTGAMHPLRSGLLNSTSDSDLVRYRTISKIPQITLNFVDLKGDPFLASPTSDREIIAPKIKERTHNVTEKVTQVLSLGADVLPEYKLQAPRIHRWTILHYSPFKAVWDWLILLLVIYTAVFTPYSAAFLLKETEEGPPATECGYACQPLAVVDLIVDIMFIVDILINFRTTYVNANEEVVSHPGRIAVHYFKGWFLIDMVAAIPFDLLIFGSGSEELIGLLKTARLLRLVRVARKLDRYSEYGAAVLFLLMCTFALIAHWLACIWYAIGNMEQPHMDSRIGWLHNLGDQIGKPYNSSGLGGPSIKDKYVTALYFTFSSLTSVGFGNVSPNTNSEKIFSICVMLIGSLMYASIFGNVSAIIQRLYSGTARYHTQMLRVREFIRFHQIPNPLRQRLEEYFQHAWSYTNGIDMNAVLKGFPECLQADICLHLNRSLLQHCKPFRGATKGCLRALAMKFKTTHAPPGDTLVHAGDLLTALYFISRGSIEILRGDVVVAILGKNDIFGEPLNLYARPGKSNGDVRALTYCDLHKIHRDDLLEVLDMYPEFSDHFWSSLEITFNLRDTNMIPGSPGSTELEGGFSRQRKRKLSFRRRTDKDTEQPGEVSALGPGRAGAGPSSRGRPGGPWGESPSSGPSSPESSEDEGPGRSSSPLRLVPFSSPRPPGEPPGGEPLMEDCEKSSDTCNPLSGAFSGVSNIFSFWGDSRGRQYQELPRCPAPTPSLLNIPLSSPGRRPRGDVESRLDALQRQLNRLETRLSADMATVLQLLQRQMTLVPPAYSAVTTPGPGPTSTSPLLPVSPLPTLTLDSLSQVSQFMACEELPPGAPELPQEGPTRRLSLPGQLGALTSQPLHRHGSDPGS
Protocol: hERG cardiotoxicity assay: The Predictor® hERG fluorescence polarization assay (Thermo Fischer Scientific, Waltham, MA, USA) was used to test compounds for potential cardiotoxicity. To each well of the assay plate, 100 nL of the test/control compound was added followed by addition of 5 μL homogenized membrane solution (undiluted) and 5 μL of tracer (1 nM final concentration in the assay). The plates were incubated for 2 h at 25 °C in a humidity controlled incubator, and the fluorescence polarization was measured using an EnVision Multilabel 2103 Reader (PerkinElmer, Waltham, MA. USA). The NCs (0% inhibition) and positive controls with E-4031, a blocker of hERG-type potassium channels (yielding 100% inhibition), were used to normalize the raw data.
Data analysis: The screening data were obtained in triplicate and analysed using ActivityBase (IDBS, Guildford, UK), and outlier elimination in the control wells was performed using the 3-sigma method. Unless stated, dose–response experiments were performed in the 11-point format with the IC50 value, Hill slope, minimum signal and maximum signal for each dose–response curve obtained using a four-parameter logistic fit in the XE module of ActivityBase (IDBS).

| SMILES | inhibition of growth at 10 µM [1] | % cell growth ± SD at 10 μΜ A549 [2] | % inhibition ± SD at 10 μΜ hERG [3] |
| --- | --- | --- | --- |
| C[N+](C)(C)CCOP(=O)([O-])OCCCCCCCCCCCn1cc(CCCCCCCCC(=O)O)nn1 [Compound 34, 11-(4-(8-carboxyoctyl)-1H-1,2,3-triazol-1-yl)undecyl (2-(trimethylammonio)ethyl) phosphate inner salt] | 0% |  |  |
| CCCCCCCCCCCCCCCCOP(=O)([O-])OCC[N+](C)(C)C [Miltefosine, hexadecylphosphocholine, reference compound] | 71.9% | 95.80% | –16.92% |
| C[N+](C)(C)CCCOP(=O)([O-])OCCCCCCCCCCCn1cc(CC2CCCCC2)nn1 [Compound 33, 11-(4-(cyclohexylmethyl)-1H-1,2,3-triazol-1-yl)undecyl (3-(trimethylammonio)propyl) phosphate inner salt] | 0% | 114.14% | 16.60 ± 2.64% |
| C[N+](C)(C)CCOP(=O)([O-])OCCCCCCCCCCCn1cc(CC2CCCCC2)nn1 [Compound 29, 11-(4-(cyclohexylmethyl)-1H-1,2,3-triazol-1-yl)undecyl (2-(trimethylammonio)ethyl) phosphate inner salt] | 69.9% | 120.63% | –4.90% |
| C[N+](C)(C)CCOP(=O)([O-])OCCCCCCCCCCCn1cc(CCCCCCCCNC(=O)OCc2ccccc2)nn1 [Compound 32, 11-(4-(8-(((benzyloxy)carbonyl)amino)octyl)-1H-1,2,3-triazol-1-yl)undecyl (2-(trimethylammonio)ethyl) phosphate inner salt] | 0% |  |  |
| CCCCCCCCCCCc1nnc(CCCCCCCCCCOP(=O)([O-])OCC[N+](C)(C)C)o1 [Compound 66, 2-(trimethylammonio)ethyl (10-(5-undecyl-1,3,4-oxadiazol-2-yl)decyl) phosphate inner salt] | 69.7% | 90.83% | 22.98% |
| C[N+](C)(C)CCOP(=O)([O-])OCCCCCn1cc(CCCCCCCCNC(=O)OCc2ccccc2)nn1 [Compound 31, 5-(4-(8-(((benzyloxy)carbonyl)amino)octyl)-1H-1,2,3-triazol-1-yl)pentyl (2-(trimethylammonio)ethyl) phosphate inner salt] | 0% | 108.64% | –6.43% |
| CCCCCCCCc1noc(CCCCCCCCCCOP(=O)([O-])OCC[N+](C)(C)C)n1 [Compound 54, 10-(3-octyl-1,2,4-oxadiazol-5-yl)decyl (2-(trimethylammonio)ethyl) phosphate inner salt] | 90.5% | 85.82% | 17.93% |
| C[N+](C)(C)CCOP(=O)([O-])OCCCCCn1cc(CCCCCCCCN)nn1 [Compound 35, 5-(4-(8-aminooctyl)-1H-1,2,3-triazol-1-yl)pentyl (2-(trimethylammonio)ethyl) phosphate inner salt] | 0% | 100.96% | 0.10% |
| CCCCCCCc1nnc(CCCCCCCCCCOP(=O)([O-])OCC[N+](C)(C)C)o1 [Compound 65, 10-(5-heptyl-1,3,4-oxadiazol-2-yl)decyl (2-(trimethylammonio)ethyl) phosphate inner salt] | 92.2% | 90.48% | 8.64% |
| CCCCCCCCCCc1cc(CCCCCCCCCCOP(=O)([O-])OCC[N+](C)(C)C)no1 [Compound 41, 10-(5-decylisoxazol-3-yl)decyl (2-(trimethylammonio)ethyl) phosphate inner salt] | 63.3% | 85.15% |  |
| CCCCCCCCc1noc(CCCCCOP(=O)([O-])OCC[N+](C)(C)C)n1 [Compound 53, 5-(3-octyl-1,2,4-oxadiazol-5-yl)pentyl (2-(trimethylammonio)ethyl) phosphate inner salt] | 44.5% | 87.74% | 8.95% |
| CCCCCc1cn(CCCCCCCCCCCOP(=O)([O-])OCC[N+](C)(C)C)nn1 [Compound 25, 11-(4-pentyl-1H-1,2,3-triazol-1-yl)undecyl (2-(trimethylammonio)ethyl) phosphate inner salt] | 66.2% | 114.88% | –7.70% |
| C[N+](C)(C)CCOP(=O)([O-])OCCCCCCCCCCCn1cc(CC2CCCC2)nn1 [Compound 28, 11-(4-(cyclopentylmethyl)-1H-1,2,3-triazol-1-yl)undecyl (2-(trimethylammo nio)ethyl) phosphate inner salt] | 58.3% | 121.51% | –3.64% |
